Results as given in US9359308B2, “Pyrazine kinase inhibitors” (Portola Pharmaceuticals, Inc., priority 2011, dated 2016).

Biological target: T1, full length active recombinant SYK enzyme (Homo sapiens, UniProt P43405)
T1 construct: full length active recombinant SYK enzyme (Millipore, Calif.); purchased Millipore
Experiment: Inhibition of Syk tyrosine phosphorylation activity (LANCE TR-FRET kinase assay)
Format: biochemical
Details: activity in the Syk assays, class symbols
How it was run: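 IC50 was derived by non-linear regression of TR-FRET signal (Eu-W1024-PY100 donor, streptavidin-APC acceptor) read 1 h after EDTA quench. The kinase step ran 1 h at room temperature with 1 nM full-length SYK, 550 nM biotinylated DEEDYESP substrate and 100 μM ATP in Tris pH 7.5/MgCl2/DTT at 3% final DMSO.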

Structure (SMILES)	IC50 [nM]
CC[C@@H](Nc1cnc(C(N)=O)c(Nc2cnc(OC)c(C)c2)n1)C(N)=O [Example 311, (R)-5-(1-amino-1-oxobutan-2-ylamino)-3-(6-methoxy-5-methylpyridin-3-ylamino)pyrazine-2-carboxamide]	10 to 100
COc1ccc(Nc2nc(N[C@H](CC(C)C)C(N)=O)cnc2C(N)=O)cn1 [Example 312, (R)-5-(1-amino-4-methyl-1-oxopentan-2-ylamino)-3-(6-methoxypyridin-3-ylamino)pyrazine-2-carboxamide]	1 to 10
CC(C)C[C@@H](Nc1cnc(C(N)=O)c(Nc2ccc(N(C)C)nc2)n1)C(N)=O [Example 313, (R)-5-(1-amino-4-methyl-1-oxopentan-2-ylamino)-3-(6-(dimethylamino)pyridin-3-ylamino)pyrazine-2-carboxamide]	10 to 100
CC[C@@H](Nc1cnc(C(N)=O)c(Nc2cnc(N(C)C)c(C)c2)n1)C(N)=O [Example 314, (R)-5-(1-amino-1-oxobutan-2-ylamino)-3-(6-(dimethylamino)-5-methylpyridin-3-ylamino)pyrazine-2-carboxamide]	100 to 1000
COc1cc(Nc2nc(N[C@@H](C(N)=O)C(C)C)cnc2C(N)=O)ccn1 [Example 315, (R)-5-(1-amino-3-methyl-1-oxobutan-2-ylamino)-3-(2-methoxypyridin-4-ylamino)pyrazine-2-carboxamide]	10 to 100
CC[C@@H](Nc1cnc(C(N)=O)c(Nc2ccc(OCC(F)(F)F)nc2)n1)C(N)=O [Example 316, (R)-5-(1-amino-1-oxobutan-2-ylamino)-3-(6-(2,2,2-trifluoroethoxy)pyridin-3-ylamino)pyrazine-2-carboxamide]	10 to 100
CC[C@@H](Nc1cnc(C(N)=O)c(Nc2ccc(OC)nc2)n1)C(N)=O [Example 317, (R)-5-(1-amino-1-oxobutan-2-ylamino)-3-(6-methoxypyridin-3-ylamino)pyrazine-2-carboxamide]	10 to 100
CC[C@@H](Nc1cnc(C(N)=O)c(Nc2ccc3nc(N(C)C)oc3c2)n1)C(N)=O [Example 318, (R)-5-(1-amino-1-oxobutan-2-ylamino)-3-(2-(dimethylamino)benzo[d]oxazol-6-ylamino)pyrazine-2-carboxamide]	10 to 100
CC[C@@H](Nc1cnc(C(N)=O)c(Nc2ccc(N3CCC3)nc2)n1)C(N)=O [Example 319, (R)-5-(1-amino-1-oxobutan-2-ylamino)-3-(6-(azetidin-1-yl)pyridin-3-ylamino)pyrazine-2-carboxamide]	10 to 100
CC[C@@H](Nc1cnc(C(N)=O)c(Nc2cc(C)ccn2)n1)C(N)=O [Example 320, (R)-5-(1-amino-1-oxobutan-2-ylamino)-3-(4-methylpyridin-2-ylamino)pyrazine-2-carboxamide]	> 1000
CC(C)C[C@@H](Nc1cnc(C(N)=O)c(Nc2ccc(C(=O)N3CC(C#N)C3)nc2)n1)C(N)=O [Example 321, (R)-5-(1-amino-4-methyl-1-oxopentan-2-ylamino)-3-(6-(3-cyanoazetidine-1-carbonyl)pyridin-3-ylamino)pyrazine-2-carboxamide]	1 to 10
CC[C@@H](Nc1cnc(C(N)=O)c(Nc2cncc(OC)c2)n1)C(N)=O [Example 322, (R)-5-(1-amino-1-oxobutan-2-ylamino)-3-(5-methoxypyridin-3-ylamino)pyrazine-2-carboxamide]	100 to 1000
COc1cncc(Nc2nc(N[C@H](CC(C)C)C(N)=O)cnc2C(N)=O)c1 [Example 323, (R)-5-(1-amino-4-methyl-1-oxopentan-2-ylamino)-3-(5-methoxypyridin-3-ylamino)pyrazine-2-carboxamide]	1 to 10
CN1C(=O)Cc2cc(Nc3nc(N[C@@H]4CCCC[C@@H]4N)cnc3C(N)=O)ccc21 [Example 324, 5-((1R,2S)-2-aminocyclohexylamino)-3-(1-methyl-2-oxoindolin-5-ylamino)pyrazine-2-carboxamide]	1 to 10
CN(C)c1nc2ccc(Nc3nc(N[C@@H]4CCCC[C@@H]4N)cnc3C(N)=O)cc2o1 [Example 325, 5-((1R,2S)-2-aminocyclohexylamino)-3-(2-(dimethylamino)benzo[d]oxazol-6-ylamino)pyrazine-2-carboxamide]	1 to 10
COc1ccc(Nc2nc(N[C@@H](C(N)=O)C(C)C)cnc2C(N)=O)cn1 [Example 326, (R)-5-(1-amino-3-methyl-1-oxobutan-2-ylamino)-3-(6-methoxypyridin-3-ylamino)pyrazine-2-carboxamide]	10 to 100
CC(C)[C@@H](Nc1cnc(C(N)=O)c(Nc2ccc(OCC(F)(F)F)nc2)n1)C(N)=O [Example 327, (R)-5-(1-amino-3-methyl-1-oxobutan-2-ylamino)-3-(6-(2,2,2-trifluoroethoxy)pyridin-3-ylamino)pyrazine-2-carboxamide]	100 to 1000
Cc1cc(Nc2nc(N[C@@H]3CCCC[C@@H]3N)cnc2C(N)=O)sn1 [Example 328, 5-((1R,2S)-2-aminocyclohexylamino)-3-(3-methylisothiazol-5-ylamino)pyrazine-2-carboxamide]	< 1

Structure (SMILES)	IC50 [nM]
CC[C@@H](Nc1cnc(C(N)=O)c(Nc2ccc(C(=O)N3CC(C#N)C3)nc2)n1)C(N)=O [Example 329, (R)-5-(1-amino-1-oxobutan-2-ylamino)-3-(6-(3-cyanoazetidine-1-carbonyl)pyridin-3-ylamino)pyrazine-2-carboxamide]	1 to 10
COc1ccc(Nc2nc(N[C@@H]3CCCC(F)(F)[C@@H]3N)cnc2C(N)=O)cn1 [Example 330, 5-((1R,2R)-2-amino-3,3-difluorocyclohexylamino)-3-(6-methoxypyridin-3-ylamino)pyrazine-2-carboxamide]	100 to 1000
COc1cc(Nc2nc(N[C@@H]3CCCC(F)(F)[C@@H]3N)cnc2C(N)=O)ccn1 [Example 331, 5-((1R,2R)-2-amino-3,3-difluorocyclohexylamino)-3-(2-methoxypyridin-4-ylamino)pyrazine-2-carboxamide]	10 to 100
COc1ncc(Nc2nc(N[C@@H]3CCCC(F)(F)[C@@H]3N)cnc2C(N)=O)cc1C [Example 332, 5-((1R,2R)-2-amino-3,3-difluorocyclohexylamino)-3-(6-methoxy-5-methylpyridin-3-ylamino)pyrazine-2-carboxamide]	10 to 100
COc1cncc(Nc2nc(N[C@@H]3CCCC(F)(F)[C@@H]3N)cnc2C(N)=O)c1 [Example 333, 5-((1R,2R)-2-amino-3,3-difluorocyclohexylamino)-3-(5-methoxypyridin-3-ylamino)pyrazine-2-carboxamide]	100 to 1000
CC(C)C[C@@H](Nc1cnc(C(N)=O)c(Nc2ccc(N3CCC3)nc2)n1)C(N)=O [Example 334, (R)-5-(1-amino-4-methyl-1-oxopentan-2-ylamino)-3-(6-(azetidin-1-yl)pyridin-3-ylamino)pyrazine-2-carboxamide]	10 to 100
CC(C)C[C@@H](Nc1cnc(C(N)=O)c(Nc2ccnc(N(C)C)c2)n1)C(N)=O [Example 335, (R)-5-(1-amino-4-methyl-1-oxopentan-2-ylamino)-3-(2-(dimethylamino)pyridin-4-ylamino)pyrazine-2-carboxamide]	1 to 10
CN(C)c1nc2ccc(Nc3nc(N[C@@H]4CCCC(F)(F)[C@@H]4N)cnc3C(N)=O)cc2o1 [Example 336, 5-((1R,2R)-2-amino-3,3-difluorocyclohexylamino)-3-(2-(dimethylamino)benzo[d]oxazol-6-ylamino)pyrazine-2-carboxamide]	1 to 10
NC(=O)c1ncc(N[C@@H]2CCCC(F)(F)[C@@H]2N)nc1Nc1ccc2nc(N3CCC3)oc2c1 [Example 337, 5-((1R,2R)-2-amino-3,3-difluorocyclohexylamino)-3-(2-(azetidin-1-yl)benzo[d]oxazol-6-ylamino)pyrazine-2-carboxamide]	10 to 100
N#Cc1ccc(Nc2nc(N[C@@H]3CCCC[C@@H]3N)cnc2C(N)=O)cn1 [Example 338, 5-((1R,2S)-2-aminocyclohexylamino)-3-(6-cyanopyridin-3-ylamino)pyrazine-2-carboxamide]	10 to 100
CN1Cc2cc(Nc3nc(N[C@@H]4CCCC[C@@H]4N)cnc3C(N)=O)ccc2C1=O [Example 339, 5-((1R,2S)-2-aminocyclohexylamino)-3-(2-methyl-1-oxoisoindolin-5-ylamino)pyrazine-2-carboxamide]	< 1
CCc1ccc(Nc2nc(N[C@H](CC)C(N)=O)cnc2C(N)=O)cn1 [Example 340, (R)-5-(1-amino-1-oxobutan-2-ylamino)-3-(6-ethylpyridin-3-ylamino)pyrazine-2-carboxamide]	10 to 100
CC[C@@H](Nc1cnc(C(N)=O)c(Nc2ccc(C3CC3)nc2)n1)C(N)=O [Example 341, (R)-5-(1-amino-1-oxobutan-2-ylamino)-3-(6-cyclopropylpyridin-3-ylamino)pyrazine-2-carboxamide]	10 to 100
CC[C@@H](Nc1cnc(C(N)=O)c(Nc2ccnc(C3CC3)c2)n1)C(N)=O [Example 342, (R)-5-(1-amino-1-oxobutan-2-ylamino)-3-(2-cyclopropylpyridin-4-ylamino)pyrazine-2-carboxamide]	< 1
CCc1ccc(Nc2nc(N[C@@H]3CCCC(F)(F)[C@@H]3N)cnc2C(N)=O)cn1 [Example 343, 5-((1R,2R)-2-amino-3,3-difluorocyclohexylamino)-3-(6-ethylpyridin-3-ylamino)pyrazine-2-carboxamide]	100 to 1000
CC(C)C[C@@H](Nc1cnc(C(N)=O)c(Nc2ccnc(C3CC3)c2)n1)C(N)=O [Example 344, (R)-5-(1-amino-4-methyl-1-oxopentan-2-ylamino)-3-(2-cyclopropylpyridin-4-ylamino)pyrazine-2-carboxamide]	< 1
NC(=O)c1ncc(N[C@@H]2CCCC(F)(F)[C@@H]2N)nc1Nc1ccc(C2CC2)nc1 [Example 345, 5-((1R,2R)-2-amino-3,3-difluorocyclohexylamino)-3-(6-cyclopropylpyridin-3-ylamino)pyrazine-2-carboxamide]	10 to 100
